± gives the expanded uncertainty stated by the source.
Experiment: xn = mol fraction of the nth substance listed
Conditions: 101 kPa, Liquid

CCOS(=O)(=O)[O-].CCn1cc[n+](C)c1 [1-ethyl-3-methylimidazolium ethyl sulfate] + O
Conditions	mass density [kg/m3]	viscosity [mPa·s]
278.15 K, x2 = 0	1251.12 ± 3.3	308 ± 46
278.15 K, x2 = 0.0001	–	308 ± 46
278.15 K, x2 = 0.2112	1246.59 ± 2.9	–
278.15 K, x2 = 0.2245	–	150 ± 15
278.15 K, x2 = 0.4084	–	83 ± 5
278.15 K, x2 = 0.4119	1239.56 ± 2.6	–
278.15 K, x2 = 0.5939	1227.74 ± 2.3	–
278.15 K, x2 = 0.5976	–	45 ± 2
278.15 K, x2 = 0.7669	1201.83 ± 2	–
278.15 K, x2 = 0.7675	–	22 ± 2
278.15 K, x2 = 0.8487	1175.63 ± 1.7	–
278.15 K, x2 = 0.9292	1120.63 ± 1.3	6 ± 2
278.15 K, x2 = 0.9683	1066.86 ± 0.98	–
278.15 K, x2 = 0.9916	1021.13 ± 0.68	–
288.15 K, x2 = 0	1244.13 ± 3.3	166 ± 17
288.15 K, x2 = 0.2112	1239.79 ± 2.9	–
288.15 K, x2 = 0.2245	–	86 ± 5
288.15 K, x2 = 0.4084	–	49 ± 2
288.15 K, x2 = 0.4119	1232.7 ± 2.5	–
288.15 K, x2 = 0.5939	1220.8 ± 2.2	–
288.15 K, x2 = 0.5976	–	27 ± 2
288.15 K, x2 = 0.7669	1194.85 ± 1.9	–
288.15 K, x2 = 0.7675	–	14 ± 2
288.15 K, x2 = 0.8487	1168.83 ± 1.7	–
288.15 K, x2 = 0.9292	1115.02 ± 1.3	5 ± 2
288.15 K, x2 = 0.9683	1063.25 ± 0.96	–
288.15 K, x2 = 0.9916	1019.46 ± 0.67	–
298.15 K, x2 = 0	1237.37 ± 3.2	95 ± 6
298.15 K, x2 = 0.2112	1232.99 ± 2.8	–
298.15 K, x2 = 0.2245	–	54 ± 4
298.15 K, x2 = 0.4084	–	33 ± 2
298.15 K, x2 = 0.4119	1225.85 ± 2.5	–
298.15 K, x2 = 0.5939	1213.87 ± 2.2	–
298.15 K, x2 = 0.5976	–	19 ± 2
298.15 K, x2 = 0.7669	1187.81 ± 1.9	–
298.15 K, x2 = 0.7675	–	10 ± 2
298.15 K, x2 = 0.8487	1161.92 ± 1.6	–
298.15 K, x2 = 0.9292	1109.14 ± 1.3	4
298.15 K, x2 = 0.9683	1059.04 ± 0.93	–
298.15 K, x2 = 0.9916	1016.78 ± 0.65	–
308.15 K, x2 = 0	1230.61 ± 3.2	62 ± 4
308.15 K, x2 = 0.2112	1226.21 ± 2.8	–
308.15 K, x2 = 0.2245	–	36 ± 2
308.15 K, x2 = 0.4084	–	23 ± 2
308.15 K, x2 = 0.4119	1219.02 ± 2.4	–
308.15 K, x2 = 0.5939	1206.92 ± 2.1	–
308.15 K, x2 = 0.5976	–	14 ± 2
308.15 K, x2 = 0.7669	1180.72 ± 1.8	–
308.15 K, x2 = 0.7675	–	8 ± 2
308.15 K, x2 = 0.8487	1154.9 ± 1.6	–
308.15 K, x2 = 0.9292	1103 ± 1.2	4
308.15 K, x2 = 0.9683	1054.27 ± 0.9	–
308.15 K, x2 = 0.9916	1013.26 ± 0.63	–
318.15 K, x2 = 0	1223.9 ± 3.1	41 ± 2
318.15 K, x2 = 0.2112	1219.45 ± 2.7	–
318.15 K, x2 = 0.2245	–	26 ± 2
318.15 K, x2 = 0.4084	–	17 ± 2
318.15 K, x2 = 0.4119	1212.21 ± 2.4	–
318.15 K, x2 = 0.5939	1199.97 ± 2.1	–
318.15 K, x2 = 0.5976	–	11 ± 2
318.15 K, x2 = 0.7669	1173.56 ± 1.8	–
318.15 K, x2 = 0.7675	–	6 ± 2
318.15 K, x2 = 0.8487	1147.77 ± 1.6	–
318.15 K, x2 = 0.9292	1096.59 ± 1.2	3
318.15 K, x2 = 0.9683	1049.01 ± 0.87	–
318.15 K, x2 = 0.9916	1009.03 ± 0.6	–
328.15 K, x2 = 0	1217.23 ± 3	30 ± 2
328.15 K, x2 = 0.2112	1212.74 ± 2.7	–
328.15 K, x2 = 0.2245	–	19 ± 2
328.15 K, x2 = 0.4084	–	13 ± 2
328.15 K, x2 = 0.4119	1205.41 ± 2.3	–
328.15 K, x2 = 0.5939	1193.01 ± 2	–
328.15 K, x2 = 0.5976	–	9 ± 2
328.15 K, x2 = 0.7669	1166.34 ± 1.7	–
328.15 K, x2 = 0.7675	–	6 ± 2
328.15 K, x2 = 0.8487	1140.52 ± 1.5	–
328.15 K, x2 = 0.9292	1089.92 ± 1.1	3
328.15 K, x2 = 0.9683	1043.29 ± 0.83	–
328.15 K, x2 = 0.9916	1004.16 ± 0.57	–
338.15 K, x2 = 0	1210.6 ± 3	21 ± 2
338.15 K, x2 = 0.2112	1206.05 ± 2.6	–
338.15 K, x2 = 0.2245	–	15 ± 2
338.15 K, x2 = 0.4084	–	11 ± 2
338.15 K, x2 = 0.4119	1198.63 ± 2.3	–
338.15 K, x2 = 0.5939	1186.03 ± 2	–
338.15 K, x2 = 0.5976	–	7 ± 2
338.15 K, x2 = 0.7669	1159.05 ± 1.7	–
338.15 K, x2 = 0.7675	–	5 ± 2
338.15 K, x2 = 0.8487	1133.14 ± 1.5	–
338.15 K, x2 = 0.9292	1083 ± 1.1	3
338.15 K, x2 = 0.9683	1037.15 ± 0.79	–
338.15 K, x2 = 0.9916	998.72 ± 0.56	–
348.15 K, x2 = 0	1204.01 ± 2.9	17 ± 2
348.15 K, x2 = 0.2112	1199.4 ± 2.6	–
348.15 K, x2 = 0.2245	–	12 ± 2
348.15 K, x2 = 0.4084	–	9 ± 2
348.15 K, x2 = 0.4119	1191.91 ± 2.2	–
348.15 K, x2 = 0.5939	1179.05 ± 2	–
348.15 K, x2 = 0.5976	–	6 ± 2
348.15 K, x2 = 0.7669	1151.68 ± 1.6	–
348.15 K, x2 = 0.7675	–	4
348.15 K, x2 = 0.8487	1125.7 ± 1.4	–
348.15 K, x2 = 0.9292	1075.83 ± 1.1	2
348.15 K, x2 = 0.9683	1030.61 ± 0.75	–
348.15 K, x2 = 0.9916	992.76 ± 0.59	–
